Assay results: patent US20260240844A1, “INHIBITORS OF CHD1L AND USES THEREOF” (The Regents of the University of Colorado, a body corporate, priority 2023, published 2026)
Read-outs that look alike come from different tables or passages of the source. Values belong to the compound of their own block, whether it stands above or below them.

How the values were obtained:
AIF in SUM149PT cells = test: AIF immunofluorescence in SUM149PT (SUM149) cells; format: cell-based
Text: CHD1Li-mediated PAR translocation to the cytoplasm activates PARthanatos as a cell death mechanism. Parthanatos is a form a programmed cell death different from apoptosis and known to be mediated by PARP1 overactivation. The unique events occurring during parthanatos are: PARP1 rapid activation, accumulation of PAR and nuclear translocation of apoptosis inducing factor (AIF). Without being bound by any particular theory, accumulation of PAR in the cytoplasm caused by CHD1Li can also mediate parthanatos. To better understand the link between PAR translocation to the cytoplasm and cell death, immunofluorescence to measure the activation of caspase-3 and the subcellular localization of AIF after treatment with SOC drugs and Compound 6 in SUM49PT cells was used. […] Without being bound by any particular theory, this might be caused by the mitochondrial outer membrane permeabilization, which triggers release of mitochondrial proteins like AIF or cytochrome c, activating caspase-3 by its cleavage and leading to apoptosis. […] Moreover, when combining CHD1L inhibition with SOC drugs, the cell death mechanism shifts from apoptosis to parthanatos, evidenced by a significant increase in AIF nuclear translocation and decrease in activation of caspase-3 (FIG. 25D-E).
(§1) The ability of Compounds 12, 15 and 16 to localize AIF was tested in SUM149 (breast cancer) and MDA-MB-231 (TNBC) cell lines. A comparison of the relative distribution of AIF in nuclei (a) versus cytoplasm (b) in SUM149 cells and nuclei (c) versus cytoplasm (d) in MDA-MB-231 cells in the presence of 4 μM Compounds 12, 15 and 16 are shown in FIG. 28. […] Similarly, AIF concentration in the cytoplasm of MDA-MB-231 cells decreased by about 0.5 after administration with Compound 15. After treatment with Compound 16, the relative concentration of AIF in the nuclei of SUM149 cells increased by about 0.5-fold, and the concentration of AIF in the cytoplasm decreased by about 0.4-fold. In MDA-MB-231 cells, the relative concentration of AIF in the cytoplasm decreased by about 0.5-fold, while the concentration of AIF increased in the nuclei by about 0.1-fold.

SUM149PT tumor organoids = test: Tumor organoid cytotoxicity (CellTiter Glo 3D), SUM149PT; format: cell-based; details: for calculated mean synergy scores: MDA-MB-231 and SUM149PT; for Mean Synergy Score / IC50: SUM149PT; for IC50: Homo sapiens, read-out: IC50 docetaxel
Experimental: Tumor organoid culture—Cell lines were cultured as tumor organoids by seeding 2,000 to 5,000 cells/well into uncoated 96 well U-bottom Ultra Low Attachment Microplates (Corning) using their corresponding medium.
Luminescence was recorded using the EnVision plate reader (PerkinElmer) and values normalized to the controls using GraphPad Prism.

CHD1L = target: T1, CHD1L (Homo sapiens, UniProt Q86WJ1); test: CHD1L trapping (in situ subcellular fractionation, immunofluorescence); format: cell-based; details: single agent; SUM149PT + 0.01% MMS 4 h; BC and CRC cells
T1 sequence (Q86WJ1 1-897): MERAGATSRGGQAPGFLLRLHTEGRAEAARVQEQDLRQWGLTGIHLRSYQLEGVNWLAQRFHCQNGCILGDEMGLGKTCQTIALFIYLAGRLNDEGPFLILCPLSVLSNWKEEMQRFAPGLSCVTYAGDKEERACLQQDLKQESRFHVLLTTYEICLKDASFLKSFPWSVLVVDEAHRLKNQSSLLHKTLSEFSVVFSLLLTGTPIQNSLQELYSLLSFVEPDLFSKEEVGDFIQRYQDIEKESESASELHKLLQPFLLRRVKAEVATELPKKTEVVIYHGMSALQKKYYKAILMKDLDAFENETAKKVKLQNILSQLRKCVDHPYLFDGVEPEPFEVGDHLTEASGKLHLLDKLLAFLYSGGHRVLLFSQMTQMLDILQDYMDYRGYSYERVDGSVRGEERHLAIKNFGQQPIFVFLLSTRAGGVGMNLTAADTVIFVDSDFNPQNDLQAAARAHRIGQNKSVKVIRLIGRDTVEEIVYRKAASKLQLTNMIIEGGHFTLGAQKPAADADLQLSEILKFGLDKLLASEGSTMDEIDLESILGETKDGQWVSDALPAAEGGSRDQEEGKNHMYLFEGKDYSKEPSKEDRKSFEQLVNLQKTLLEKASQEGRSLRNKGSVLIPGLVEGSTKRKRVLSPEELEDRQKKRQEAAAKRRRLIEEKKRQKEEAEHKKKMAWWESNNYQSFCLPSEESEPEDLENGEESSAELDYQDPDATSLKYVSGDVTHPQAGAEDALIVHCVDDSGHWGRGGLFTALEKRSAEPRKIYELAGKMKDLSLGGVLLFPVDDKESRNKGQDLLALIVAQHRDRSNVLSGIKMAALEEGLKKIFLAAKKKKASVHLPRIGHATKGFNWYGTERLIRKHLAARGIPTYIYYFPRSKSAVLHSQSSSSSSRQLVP
Text: Other studies on the role of CHD1L used cell lines with knockdown or knockouts of the gene encoding for CHD1L and have never been able to study the result of its enzymatic inhibition.

PAR in SUM149PT cells = test: PAR immunofluorescence (nuclear / cytoplasmic PAR); format: cell-based
Text: Inhibition of CHD1L promotes PAR translocation to the cytoplasm. The main role of PARP1 during the DDR is to detect and signal the recruitment of repair machinery to the sites of DNA damage. For that, PARP1/2 catalyze PARylation, which is a pivotal […] protein modification, consisting of the addition of ADP-ribose units to the carboxyl group of acidic residues such as glutamate or aspartate on target proteins by using NAD^+ as substrate. CHD1L is one of the proteins that requires binding to these PAR chains for its activation and subsequent chromatin remodeling. Using immunofluorescence of PAR, the effect of PARPi and CHD1Li on PARylation in SUM149PT cells was investigated. […] In addition, the effect of doxorubicin on nuclear PARylation was reverted by CHD1L inhibition, causing an increase of PAR in the cytoplasm (FIG. 25A-C).

MiaPaca2 cells = test: MiaPaca2 cell viability, combination with chemotherapy; format: cell-based; details: MiaPaca2 cells
Text: The cell viability assays and Bliss synergy analyses are as described above in Examples 1-9 and 11-12.

SW620 Parental cells = test: SW620 Parental cell viability, combination with chemotherapy; format: cell-based; details: SW620 cells
HCT116 Parental cells = test: HCT116 Parental cell viability, combination with chemotherapy; format: cell-based; details: HCT116 cells
[1] = tested on: MDA-MB-231 tumor organoids; test: Tumor organoid cytotoxicity, MDA-MB-231; format: cell-based; details: MDA-MB-231
Experimental: Tumor organoid culture—Cell lines were cultured as tumor organoids by seeding 2,000 to 5,000 cells/well into uncoated 96 well U-bottom Ultra Low Attachment Microplates (Corning) using their corresponding medium. Cell aggregation was then promoted by centrifugation of the plates for 15 min at 1,000 rpm followed by the addition of Matrigel (Corning) to a 2-5% final concentration. Tumor organoids were maintained under standard cell culture conditions for 72 h prior to drug treatment.
Organoids were then transferred to a white solid bottom 96 well plate and incubated with an equal volume of CellTiter Glo 3D reagent (Promega) for 45 min on a shaker at 400 rpm. Luminescence was recorded using the EnVision plate reader (PerkinElmer) and values normalized to the controls using GraphPad Prism.

Colo678 cells = test: Colo678 cell viability, combination with chemotherapy; format: cell-based; details: Colo678 cells
[2] = tested on: SUM149 and MDA-MB-231 cells; test: DDR biomarkers in breast cancer cells; format: cell-based; details: 4 μM
Text: (§2) Etoposide was used as a control to show upregulation of DDR pathway biomarkers.

Colo679 cells = test: DDR biomarkers (pATM, RAD51, 53BP1, γ-H2AX) in Colo679 cells; format: cell-based; details: 4 μM
Text: as §2

AIF in MDA-MB-231 cells = test: AIF localization in MDA-MB-231 cells; format: cell-based; details: 4 μM
Experimental: as §1

SW948 tumor organoids = test: cells; details: SW948 tumor organoids; combined with Compound 6
Experimental: ATM is an important protein involved in the initial stages of the DNA damage response. […] ATM mutations are important markers being developed to identify metastatic CRC (mCRC) patients that may be sensitive to DNA damaging chemotherapy.
Synergy was assessed using the Bliss model.

[3] = SUM149PT cells, single agent, 18 h
[4] = SUM149PT tumor organoids, combined with Compound 6
[5] = Compound 13 combined with Olaparib
[6] = Compound 13 combined with doxorubicin

- CHD1L trapping onto chromatin/nucleosomes (CHD1L): did not show CHD1L trapping
Compound: CCc1cc2ncc(CN3CCN(c4ccc(C(=O)NC)nc4)CC3)cc2[nH]c1=O [AZD5305]
- cytoplasmic AIF (AIF in SUM149PT cells; [3]): increase in the AIF intensity in the cytoplasm
- nuclear AIF (AIF in SUM149PT cells; [3]): no translocation of this protein to the nucleus
- improvement of IC50 potency (SUM149PT tumor organoids; [4]): 2.7 fold
- nuclear PAR (PARylation) (PAR in SUM149PT cells; SUM149PT cells, single agent, 4 h): inhibition of nuclear PARylation

Compound: Cc1cc(Nc2ccc(NC(=O)Cc3c[nH]c4cc(Cl)ccc34)cc2)nc(N2CCCC2)n1 [Compound 7, 2-(6-chloro-1H-indol-3-yl)-N-(4-((6-methyl-2-(pyrrolidin-1-yl)pyrimidin-4-yl)amino)phenyl)acetamide]
- calculated mean synergy score (MiaPaca2 cells; combined with 5-FU): about 25
- calculated mean synergy score (MiaPaca2 cells; combined with SN-38): about 24.5

Compound: Cc1cc(Nc2ccc(NC(=O)Cc3cc(Cl)nc4ccccc34)cc2)nc(N2CCCC2)n1 [Compound 8, 2-(2-chloroquinolin-4-yl)-N-(4-((6-methyl-2-(pyrrolidin-1-yl)pyrimidin-4-yl)amino)phenyl)acetamide]
- calculated mean synergy score (MiaPaca2 cells; combined with 5-FU): about 29.5
- calculated mean synergy score (MiaPaca2 cells; combined with SN-38): about 26

Compound: Cc1cc(Nc2ccc(NC(=O)/C=C/c3cc(Br)cs3)cc2)nc(N2CCCC2)n1 [Compound 11, (E)-3-(4-bromothiophen-2-yl)-N-(4-((6-methyl-2-(pyrrolidin-1-yl)pyrimidin-4-yl)amino)phenyl)acrylamide]
- calculated mean synergy score (SW620 Parental cells; 72 h, combined with SN-38): about 24
- calculated mean synergy score (SW620 Parental cells; combined with 5-FU): about 43
- calculated mean synergy score (HCT116 Parental cells; 72 h, combined with SN-38): about 14
- calculated mean synergy score (HCT116 Parental cells; combined with 5-FU): about 8

Compound: Cc1cc(Nc2ccc(NC(=O)c3cc(Br)cs3)cc2)nc(N2CCCC2)n1 [Compound 13, 4-bromo-N-(4-((6-methyl-2-(pyrrolidin-1-yl)pyrimidin-4-yl)amino)phenyl)thiophene-2-carboxamide]
- Mean Synergy Score ([1]; Compound 13 combined with 5-FU): 23.62
- Mean Synergy Score [1, 5]: 40.44
- Mean Synergy Score [1, 6]: 23.62
- calculated mean synergy scores (SUM149PT tumor organoids; all combinations with 5-FU or doxorubicin): at least 20
- calculated mean synergy scores (SUM149PT tumor organoids; all combinations with Olaparib): at least 40
- Mean Synergy Score (SUM149PT tumor organoids; Compound 13 combined with 5-FU): 23.62
- Mean Synergy Score (SUM149PT tumor organoids; [5]): 69.46
- Mean Synergy Score (SUM149PT tumor organoids; [6]): 42.74
- calculated mean synergy score (Colo678 cells; 72 h, combined with SN-38): about 41
- calculated mean synergy score (Colo678 cells; combined with 5-FU): about 12
- calculated mean synergy score (MiaPaca2 cells; combined with 5-FU): about 57
- calculated mean synergy score (MiaPaca2 cells; combined with SN-38): about 18

Compound: Cc1cc(Nc2ccc(NC(=O)c3cnc(Br)s3)cc2)nc(N2CCCC2)n1 [Compound 14, 2-bromo-N-(4-((6-methyl-2-(pyrrolidin-1-yl)pyrimidin-4-yl)amino)phenyl)thiazole-5-carboxamide]
- amounts of γ-H2AX and 53BP1 [2]: overall decreases in the amounts of γ-H2AX and 53BP1
- calculated mean synergy score (Colo678 cells; 72 h, combined with SN-38): about 57
- calculated mean synergy score (Colo678 cells; combined with 5-FU): about 26
- amount of 53BP1 (Colo679 cells): decrease the amount of 53BP1
- amount of pATM (Colo679 cells): increased the amount of pATM
- γ-H2AX concentrations (Colo679 cells): decreased

Compound: Cc1cc(Nc2ccc(NC(=O)Cc3ccc(Br)s3)cc2)nc(N2CCCC2)n1 [Compound 15, 2-(5-bromothiophen-2-yl)-N-(4-((6-methyl-2-(pyrrolidin-1-yl)pyrimidin-4-yl)amino)phenyl)acetamide]
- decrease in AIF in the cytoplasm (AIF in SUM149PT cells; SUM149 cells, 4 μM): about 0.5 fold
- increase in AIF in the nucleus (AIF in SUM149PT cells; SUM149 cells, 4 μM): about 0.5 fold
- decrease in AIF in the cytoplasm (AIF in MDA-MB-231 cells): about 0.5 fold

Compound: CC(=O)O[C@@]12CO[C@@H]1C[C@H](O)[C@@]1(C)C(=O)[C@H](O)C3=C(C)[C@@H](OC(=O)[C@H](O)[C@@H](NC(=O)OC(C)(C)C)c4ccccc4)C[C@@](O)([C@@H](OC(=O)c4ccccc4)[C@H]21)C3(C)C [docetaxel]
- IC50 (SUM149PT tumor organoids; [4]): 0.5 µM
- IC50 (SUM149PT tumor organoids; SUM149PT tumor organoids, docetaxel alone): 55 µM
- increase in potency of the chemotherapy (SUM149PT tumor organoids; SUM149PT BRCA1 mutant tumor organoids, + 1.9 μM Compound 6): 110 fold

Compound: O=C(O)C(=O)O.[NH-][C@@H]1CCCC[C@H]1[NH-].[Pt+2] [oxaliplatin]
- increase in potency of the chemotherapy (SW948 tumor organoids): 20 fold

Compound: PDD00017273
- nuclear PAR under CHD1L inhibition (PAR in SUM149PT cells; cells pre-treated 2 hours with 1 μM PARG inhibitor before CHD1Li): kept the levels of nuclear PAR similar to control cells
